Test results published in patent US20240368122A1, “JAK2 INHIBITORS AND METHODS OF USE THEREOF” (RELAY THERAPEUTICS, INC., priority 2021, published 2024).
Where two headings read alike, the source gives them in different places.

Tests used:
[1] = system: TF1 JAK2 V617F STAT5 reporter; assay: Cellular TF1 STAT5 assay (luciferase reporter), JAK2 V617F; assay type: cell-based; details: read-out: Cell PD TF1 V617F STAT5 (IC50)
Procedure, shortened: (§1)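 Measured in TF1 cells with mutant JAK2 V617F and STAT-responsive luciferase: 18-20 h compound exposure at 37 °C, then ONE-glo luminescence.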

[2] = system: TF1 JAK2 V617F STAT3 reporter; assay: Cellular TF1 STAT3 assay (luciferase reporter), JAK2 V617F; assay type: cell-based; details: read-out: Cell PD-TF1 JAK2 V617F STAT3 (IC50)
Procedure, shortened: as §1

[3] = target: T1, JAK2 JH2 WT (V536-D812) [W659A, W777A, F794H solubilizing mutations] (Homo sapiens, UniProt O60674, F794H/W659A/W777A); assay: Surface Plasmon Resonance (SPR) binding assay, JAK2 JH2 domain
T1 construct: **JAK2 JH2 WT (V536-D812) [W659A, W777A, F794H solubilizing mutations]; C-thrombin-avi-His6; thrombin cleavage site (C); His6 (C); purchased Biortus
T1 sequence (O60674 536-812 W659A/W777A/F794H): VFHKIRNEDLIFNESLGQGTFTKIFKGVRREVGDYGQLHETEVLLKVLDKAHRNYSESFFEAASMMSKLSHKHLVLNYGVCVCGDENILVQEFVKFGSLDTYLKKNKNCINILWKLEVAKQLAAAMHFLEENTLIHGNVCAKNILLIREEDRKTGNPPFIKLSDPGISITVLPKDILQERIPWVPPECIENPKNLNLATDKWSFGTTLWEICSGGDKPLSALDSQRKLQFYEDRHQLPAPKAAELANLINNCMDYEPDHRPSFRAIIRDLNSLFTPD
Procedure, shortened: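 Kinetics came from 1:1 fits of single-cycle runs at 20 °C: four 3-fold dilutions from 5 uM for JH1 or 500 nM for JH2, 60 s association, and 300 s or 1200 s dissociation respectively. Protein was freshly captured per compound in the presence of 10 uM stabilizer compound, with running buffer of pH 7.5 HEPES/NaCl/glycerol/DTT plus 2% DMSO.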

[4] = Homo sapiens, TF-1, TF1 cells, JAK2 V617F

CNC(=O)c1nnc(NC(=O)C2CC2)cc1Nc1cccc(-c2cnc(C(=O)N(C)Cc3ccccn3)c(F)c2)c1OC [Compound 27]
IC50 ([1]; TF1 JAK2 V617F): 50 to 500 nM | IC50 ([2]; TF1 JAK2 V617F): 50 to 500 nM | Kd ([3]; SPR, JAK2 JH2 domain): 0.01 to 10 nM

CNC(=O)c1nnc(NC(=O)C2CC2)cc1Nc1cccc(-c2ccc(C(=O)N(C)Cc3ccn(C)n3)c(C(F)(F)F)c2)c1OC [Compound 171]
IC50 ([1]; TF1 JAK2 V617F): 500 to 5000 nM | IC50 ([2]; TF1 JAK2 V617F): 500 to 5000 nM | Kd ([3]; SPR, JAK2 JH2 domain): 0.01 to 10 nM

CNC(=O)c1nnc(NC(=O)C2CC2)cc1Nc1cccc(-c2cn(C3CN(Cc4cccc(C#N)n4)C3)nn2)c1OC [Compound 183]
IC50 ([1]; TF1 JAK2 V617F): 50 to 500 nM | IC50 ([2]; TF1 JAK2 V617F): 500 to 5000 nM | Kd ([3]; SPR, JAK2 JH2 domain): 0.01 to 10 nM

COc1c(Nc2cc(NC(=O)C3CC3)nn3cc(C)nc23)ccc(C)c1-c1ccc(C(=O)N(C)Cc2cc(C#N)ccn2)nc1 [Compound 256]
IC50 [1, 4]: 500 to 5000 nM | IC50 [2, 4]: 500 to 5000 nM | Kd [3]: 0.01 to 10 nM

CNC(=O)c1nnc(NC(=O)C2CC2)cc1Nc1cccc(-c2ccc(C(=O)N(C)Cc3ccccn3)nc2)c1OC [Compound 19]
IC50 ([1]; TF1 JAK2 V617F): 500 to 5000 nM | IC50 ([2]; TF1 JAK2 V617F): 500 to 5000 nM | Kd ([3]; SPR, JAK2 JH2 domain): 0.01 to 10 nM

CNC(=O)c1nnc(NC(=O)C2CC2)cc1Nc1cccc(-c2cnn(C3CN(Cc4ncccc4O)C3)c2)c1OC [Compound 365]
IC50 [1, 4]: 500 to 5000 nM | IC50 [2, 4]: 500 to 5000 nM | Kd [3]: 0.01 to 10 nM

CNC(=O)c1nnc(NC(=O)C2CC2)cc1Nc1cccc(-c2cnn(C3CN(Cc4cccc(C(C)=O)n4)[C@H]3C)c2)c1OC (stereo partly drawn) [Compound 377]
IC50 [1, 4]: 500 to 5000 nM | IC50 [2, 4]: 500 to 5000 nM | Kd [3]: 0.01 to 10 nM

CNC(=O)c1nnc(NC(=O)C2CC2)cc1Nc1cccc(-c2ccc(C3CN(Cc4cccnc4C(F)F)C3)nc2)c1OC [Compound 288]
IC50 [1, 4]: 5000 to 100000 nM | IC50 [2, 4]: 5000 to 100000 nM | Kd [3]: 50 to 500 nM

[2H]C([2H])([2H])NC(=O)c1nnc(NC(=O)C2CC2)cc1Nc1cccc(-c2cnc(C(=O)N(C)Cc3ccn(C)n3)nc2)c1OC [Compound 62]
IC50 ([1]; TF1 JAK2 V617F): 500 to 5000 nM | IC50 ([2]; TF1 JAK2 V617F): 500 to 5000 nM | Kd ([3]; SPR, JAK2 JH2 domain): 0.01 to 10 nM

CNC(=O)c1nnc(NC(=O)C2CC2)cc1Nc1cccc(-c2ccc(C(=O)N(C)Cc3ncc(CN(C)C)s3)nc2)c1OC [Compound 271]
IC50 [1, 4]: 500 to 5000 nM | IC50 [2, 4]: 500 to 5000 nM | Kd [3]: 0.01 to 10 nM

CNC(=O)c1nnc(NC(=O)C2CC2)cc1Nc1cccc(-c2cn(C3CN(C(C)C)C3)nc2C(C)O)c1OC (stereo not drawn) [Compound 336]
IC50 [1, 4]: 5000 to 100000 nM | IC50 [2, 4]: 5000 to 100000 nM | Kd [3]: 50 to 500 nM

CC#Cc1cccc(CN2CC(n3cc(-c4cccc(Nc5cc(NC(=O)C6CC6)nnc5C(=O)NC)c4OC)cn3)C2)n1 [Compound 281]
IC50 [1, 4]: 50 to 500 nM | IC50 [2, 4]: 50 to 500 nM | Kd [3]: 0.01 to 10 nM

CNC(=O)c1nnc(NC(=O)C2CC2)cc1Nc1cccc(-c2cnn(C3CN(Cc4cccc(C#N)n4)C3)c2)c1 [Compound 232]
IC50 [1, 4]: 5000 to 100000 nM | IC50 [2, 4]: 5000 to 100000 nM | Kd [3]: 10 to 50 nM

CNC(=O)c1nnc(NC(=O)C2CC2)cc1Nc1cccc(-c2ccc(C(=O)N(C)Cc3ccc(C)cn3)nc2)c1OC [Compound 134]
IC50 ([1]; TF1 JAK2 V617F): 500 to 5000 nM | IC50 ([2]; TF1 JAK2 V617F): 50 to 500 nM | Kd ([3]; SPR, JAK2 JH2 domain): 0.01 to 10 nM

CNC(=O)c1nnc(NC(=O)C2CC2)cc1Nc1cccc(-c2ccc(C3CN(Cc4cccc(C#N)n4)C3)nc2)c1OC [Compound 266]
IC50 [1, 4]: 500 to 5000 nM | IC50 [2, 4]: 500 to 5000 nM | Kd [3]: 0.01 to 10 nM

CNC(=O)c1nnc(NC(=O)C2CC2)cc1Nc1ccc(C)c(-c2cn([C@@H]3CN(Cc4cccc(C)n4)[C@H]3C)nn2)c1OC (racemic) [Compound 270]
IC50 [1, 4]: 500 to 5000 nM | IC50 [2, 4]: 500 to 5000 nM | Kd [3]: 0.01 to 10 nM

CNC(=O)c1nnc(NC(=O)C2CC2)cc1Nc1cccc(-c2ccc(C(=O)N(C)[C@@H](C)c3ccn(C)n3)nc2)c1OC (single isomer, unassigned) [Compound 160]
IC50 ([1]; TF1 JAK2 V617F): 500 to 5000 nM | IC50 ([2]; TF1 JAK2 V617F): 500 to 5000 nM | Kd ([3]; SPR, JAK2 JH2 domain): 0.01 to 10 nM

CNC(=O)c1nnc(NC(=O)C2CC2)cc1Nc1cccc(-c2ccc(C(=O)N(C)Cc3ccon3)nc2)c1OC [Compound 99]
IC50 ([1]; TF1 JAK2 V617F): 5000 to 100000 nM | IC50 ([2]; TF1 JAK2 V617F): 500 to 5000 nM | Kd ([3]; SPR, JAK2 JH2 domain): 0.01 to 10 nM

CNC(=O)c1nnc(NC(=O)C2CC2)cc1Nc1cccc(-c2cnn(C3CN(Cc4cccc(F)c4F)C3)c2)c1OC [Compound 129]
IC50 ([1]; TF1 JAK2 V617F): 500 to 5000 nM | IC50 ([2]; TF1 JAK2 V617F): 500 to 5000 nM | Kd ([3]; SPR, JAK2 JH2 domain): 10 to 50 nM

CNC(=O)c1nnc(NC(=O)C2CC2)cc1Nc1cccc(-c2cnn([C@H]3C[C@H]([C@@H](OC)c4ccccn4)C3)c2)c1OC (single isomer, unassigned) [Compound 346]
IC50 [1, 4]: 500 to 5000 nM | IC50 [2, 4]: 500 to 5000 nM | Kd [3]: 0.01 to 10 nM

CNC(=O)c1nnc(NC(=O)C2CC2)cc1Nc1cccc(-c2cn(C3CN(Cc4cccc(C#N)n4)C3)nc2C(C)O)c1OC (stereo not drawn) [Compound 337]
IC50 [1, 4]: 5000 to 100000 nM | IC50 [2, 4]: 5000 to 100000 nM | Kd [3]: 0.01 to 10 nM

CNC(=O)c1nnc(NC(=O)C2CC2)cc1Nc1ccc(C#N)c(-c2ccc(C(=O)N(C)Cc3cc(C#N)ccn3)cc2)c1OC [Compound 272]
IC50 [1, 4]: 500 to 5000 nM | IC50 [2, 4]: 500 to 5000 nM | Kd [3]: 0.01 to 10 nM

CNC(=O)c1nnc(NC(=O)OC2CC2)cc1Nc1cccc(-c2cnn(C3CN(Cc4ccccn4)C3)c2)c1OC [Compound 342]
IC50 [1, 4]: 500 to 5000 nM | IC50 [2, 4]: 500 to 5000 nM | Kd [3]: 0.01 to 10 nM

CNC(=O)c1nnc(NC(=O)C2CC2)cc1Nc1cccc(-c2ccc(C3CN(Cc4cccc(C(F)(F)F)n4)C3)nc2)c1OC [Compound 391]
IC50 [1, 4]: 500 to 5000 nM | IC50 [2, 4]: 5000 to 100000 nM | Kd [3]: 10 to 50 nM

CNC(=O)c1nnc(NC(=O)C2CC2)cc1Nc1ccc(C)c(-c2ccc(C3CN(Cc4cc(C#N)ccn4)C3)nc2)c1OC [Compound 321]
IC50 [1, 4]: 5000 to 100000 nM | IC50 [2, 4]: 5000 to 100000 nM | Kd [3]: 10 to 50 nM

CNC(=O)c1nnc(NC(=O)C2CC2)cc1Nc1cccc(-c2ccc(C(=O)N(C)Cc3cn(C)nc3OC)nc2)c1OC [Compound 257]
IC50 [1, 4]: 50 to 500 nM | IC50 [2, 4]: 50 to 500 nM | Kd [3]: 0.01 to 10 nM

CNC(=O)c1nnc(NC(=O)C2CC2)cc1Nc1cccc(-c2ccc(C(=O)N(C)Cc3cn(C)cn3)nc2)c1OC [Compound 86]
IC50 ([1]; TF1 JAK2 V617F): 500 to 5000 nM | IC50 ([2]; TF1 JAK2 V617F): 500 to 5000 nM | Kd ([3]; SPR, JAK2 JH2 domain): 0.01 to 10 nM

CNC(=O)c1nnc(NC(=O)C2CC2)cc1Nc1cccc(-c2ccc(C(=O)N(C)Cc3cc(C#N)ccn3)c(C(F)(F)F)c2)c1OC [Compound 170]
IC50 ([1]; TF1 JAK2 V617F): 500 to 5000 nM | IC50 ([2]; TF1 JAK2 V617F): 500 to 5000 nM | Kd ([3]; SPR, JAK2 JH2 domain): 0.01 to 10 nM

CNC(=O)c1nnc(NC(=O)C2CC2)cc1Nc1cccc(-c2ccc(C(=O)N(C)C[C@@H]3Cc4ccccc4CO3)nc2)c1OC (single isomer, unassigned) [Compound 138]
IC50 ([1]; TF1 JAK2 V617F): 5000 to 100000 nM | IC50 ([2]; TF1 JAK2 V617F): 500 to 5000 nM | Kd ([3]; SPR, JAK2 JH2 domain): 10 to 50 nM

CNC(=O)c1nnc(NC(=O)C2CC2)cc1Nc1cccc(-c2ccc(C(=O)N(C)Cc3cn(C4CC4)nc3C)nc2)c1OC [Compound 285]
IC50 [1, 4]: 500 to 5000 nM | IC50 [2, 4]: 500 to 5000 nM | Kd [3]: 0.01 to 10 nM

CNC(=O)c1nnc(NC(=O)C2CC2)cc1Nc1cccc(-c2cnn(C3CN(Cc4ncccn4)C3)c2)c1OC [Compound 70]
IC50 ([1]; TF1 JAK2 V617F): 500 to 5000 nM | IC50 ([2]; TF1 JAK2 V617F): 500 to 5000 nM | Kd ([3]; SPR, JAK2 JH2 domain): 0.01 to 10 nM

CNC(=O)c1nnc(NC(=O)C2CC2)cc1Nc1cccc(-c2cnn(C3CN(Cc4cc(Cl)ccn4)C3)c2)c1OC [Compound 250]
IC50 [1, 4]: 50 to 500 nM | IC50 [2, 4]: 50 to 500 nM | Kd [3]: 0.01 to 10 nM

CNC(=O)c1nnc(NC(=O)C2CC2)cc1Nc1cccc(-c2cnn(C3CN([C@@H](C)c4cccc(C#N)n4)C3)c2)c1OC (single isomer, unassigned) [Compound 286]
IC50 [1, 4]: 50 to 500 nM | IC50 [2, 4]: 50 to 500 nM | Kd [3]: 0.01 to 10 nM

CNC(=O)c1nnc(NC(=O)C2CC2)cc1Nc1cccc(-c2cnn(C3CN(Cc4ccccc4F)C3)c2)c1OC [Compound 90]
IC50 ([1]; TF1 JAK2 V617F): 500 to 5000 nM | IC50 ([2]; TF1 JAK2 V617F): 500 to 5000 nM | Kd ([3]; SPR, JAK2 JH2 domain): 0.01 to 10 nM

CNC(=O)c1nnc(NC(=O)C2CC2)cc1Nc1cccc(-c2cnn(C3CN(Cc4cccc(C5CCC5)n4)C3)c2)c1OC [Compound 258]
IC50 [1, 4]: 50 to 500 nM | IC50 [2, 4]: 50 to 500 nM | Kd [3]: 0.01 to 10 nM
